Experimental data published in ChEMBL document CHEMBL2331118, “A facile three-component [3+2]-cycloaddition for the regioselective synthesis of highly functionalised dispiropyrrolidines acting as antimycobacterial agents” (Bioorg Med Chem Lett, 2013).
≈ marks a conversion by molar mass, not a printed value.

Columns and labels:
[1] = test system: Vero; assay: Cytotoxicity against african green monkey Vero cells after 72 hrs by MTT assay; type: cell-based; conditions: Chlorocebus sabaeus
[2] = test system: Mycobacterium tuberculosis; assay: Antitubercular activity against Mycobacterium tuberculosis H37Rv by BacTiter-Gl Microbial Cell Viability assay; type: functional, organism-based
[3] = test system: Mycobacterium tuberculosis; assay: Antitubercular activity against Mycobacterium tuberculosis H37Rv by microdilution alamar Blue broth assay; type: functional, organism-based
[4] = test system: Mycobacterium tuberculosis; assay: Ratio of pyrimethamine MIC to compound MIC for Mycobacterium tuberculosis H37Rv by BacTiter-Gl Microbial Cell Viability assay; type: functional
[5] = test system: Mycobacterium tuberculosis; assay: Ratio of pyrimethamine EC90 to compound EC90 for Mycobacterium tuberculosis H37Rv by BacTiter-Gl Microbial Cell Viability assay; type: functional
[6] = test system: Mycobacterium tuberculosis; assay: Ratio of pyrimethamine EC50 to compound EC50 for Mycobacterium tuberculosis H37Rv by BacTiter-Gl Microbial Cell Viability assay; type: functional
[7] = test system: Mycobacterium tuberculosis; assay: Ratio of cycloserine MIC to compound MIC for Mycobacterium tuberculosis H37Rv by BacTiter-Gl Microbial Cell Viability assay; type: functional
[8] = test system: Mycobacterium tuberculosis; assay: Ratio of cycloserine EC90 to compound EC90 for Mycobacterium tuberculosis H37Rv by BacTiter-Gl Microbial Cell Viability assay; type: functional
[9] = test system: Mycobacterium tuberculosis; assay: Ratio of cycloserine EC50 to compound EC50 for Mycobacterium tuberculosis H37Rv by BacTiter-Gl Microbial Cell Viability assay; type: functional

Structure (SMILES) | IC50 [1] | EC50 [2] | EC90 [2] | MIC [2] | EC50 [3] | EC90 [3] | MIC [3] | Ratio [4] | Ratio [5] | Ratio EC50 [6] | Ratio [7] | Ratio [8] | Ratio EC50 [9]
CN1C[C@H](c2ccc(C(F)(F)F)cc2)[C@]2(Cc3ccccc3C2=O)[C@]12C(=O)c1cccc3cccc2c13 | > 62.5 µg/mL | 3.21 µM | 12.3 µM | 50 µM (≈ 24.9 µg/mL) | 23.4 µM | > 100 µM |  |  |  |  |  |  | 
CN1C[C@H](c2ccc(OC(F)(F)F)cc2)[C@]2(Cc3ccccc3C2=O)[C@]12C(=O)c1cccc3cccc2c13 | > 62.5 µg/mL | 8.51 µM | 26.1 µM | 50 µM (≈ 25.7 µg/mL) | 36.6 µM | > 100 µM |  |  |  |  |  |  | 
CN1C[C@H](c2cncc(-c3ccc(F)cc3)c2)[C@]2(Cc3ccccc3C2=O)[C@]12C(=O)c1cccc3cccc2c13 | > 62.5 µg/mL | 64.5 µM | > 100 µM |  | > 100 µM | > 100 µM |  |  |  |  |  |  | 
CN1C[C@H](c2ccc(C(=O)O)cc2)[C@]2(Cc3ccccc3C2=O)[C@]12C(=O)c1cccc3cccc2c13 | > 62.5 µg/mL | 20.7 µM | > 100 µM | 100 µM (≈ 47.4 µg/mL) | 69.2 µM | 99.7 µM | 100 µM (≈ 47.4 µg/mL) |  |  |  |  |  | 
CN1C[C@H](c2cccc([N+](=O)[O-])c2)[C@]2(Cc3ccccc3C2=O)[C@]12C(=O)c1cccc3cccc2c13 | > 62.5 µg/mL | 10.1 µM | > 100 µM |  | 77.5 µM | > 100 µM |  |  |  |  |  |  | 
COc1ccc([C@H]2CN(C)[C@@]3(C(=O)c4cccc5cccc3c45)[C@@]23Cc2ccccc2C3=O)cc1 | > 62.5 µg/mL | 13.4 µM | 62.4 µM | 100 µM (≈ 46 µg/mL) | 40.9 µM | > 100 µM |  |  |  |  |  |  | 
CN1C[C@H](c2cccc3c2OCO3)[C@]2(Cc3ccccc3C2=O)[C@]12C(=O)c1cccc3cccc2c13 | > 62.5 µg/mL | 11.5 µM | > 100 µM | 100 µM (≈ 47.4 µg/mL) | 63.8 µM | > 100 µM |  |  |  |  |  |  | 
CN(C)c1ccc([C@H]2CN(C)[C@@]3(C(=O)c4cccc5cccc3c45)[C@@]23Cc2ccccc2C3=O)cc1 | > 62.5 µg/mL | 9.87 µM | 55.3 µM | 100 µM (≈ 47.3 µg/mL) | 56 µM | > 100 µM |  |  |  |  |  |  | 
CN1C[C@H](c2ccc(N3CCOCC3)cc2)[C@]2(Cc3ccccc3C2=O)[C@]12C(=O)c1cccc3cccc2c13 | > 62.5 µg/mL | 18.9 µM | > 100 µM |  | > 100 µM | > 100 µM |  |  |  |  |  |  | 
COc1ccc(OC)c([C@H]2CN(C)[C@@]3(C(=O)c4cccc5cccc3c45)[C@@]23Cc2ccccc2C3=O)c1 | > 62.5 µg/mL | 9.56 µM | > 100 µM |  | 68 µM | > 100 µM |  |  |  |  |  |  | 
CN1C[C@H](c2ccc(N3CCCCC3)cc2)[C@]2(Cc3ccccc3C2=O)[C@]12C(=O)c1cccc3cccc2c13 | > 62.5 µg/mL | 17.8 µM | > 100 µM |  | > 100 µM | > 100 µM |  |  |  |  |  |  | 
CN1C[C@H](c2ccccc2)[C@]2(Cc3ccccc3C2=O)[C@]12C(=O)c1cccc3cccc2c13 | > 62.5 µg/mL | > 100 µM | > 100 µM |  | > 100 µM | > 100 µM |  |  |  |  |  |  | 
CN1C[C@H](c2ccc(Cl)cc2)[C@]2(Cc3ccccc3C2=O)[C@]12C(=O)c1cccc3cccc2c13 | > 62.5 µg/mL | 6.27 µM | 29.6 µM | 50 µM (≈ 23.2 µg/mL) | 68.5 µM | > 100 µM |  |  |  |  |  |  | 
CN1C[C@H](c2ccc(Br)cc2)[C@]2(Cc3ccccc3C2=O)[C@]12C(=O)c1cccc3cccc2c13 | > 62.5 µg/mL | 2.2 µM | 10.8 µM | 12.5 µM (≈ 6.36 µg/mL) | 15.1 µM | > 100 µM |  | >8 | 4.3 | 11 | >8 | 2.45 | 10.7
NCC[C@H](O)C(=O)N[C@@H]1C[C@H](N)[C@@H](O[C@H]2O[C@H](CN)[C@@H](O)[C@H](O)[C@H]2O)[C@H](O)[C@H]1O[C@H]1O[C@H](CO)[C@@H](O)[C@H](N)[C@H]1O [AMIKACIN] | > 62.5 µg/mL | 0.07 µM | 0.12 µM | 0.16 µM (≈ 0.0937 µg/mL) | 0.12 µM | 0.14 µM | 0.16 µM (≈ 0.0937 µg/mL) |  |  |  |  |  | 
N[C@@H]1CONC1=O [CYCLOSERINE] | > 62.5 µg/mL | 23.6 µM | 26.4 µM | 100 µM (≈ 10.2 µg/mL) | 24.8 µM | 28 µM | 100 µM (≈ 10.2 µg/mL) |  |  |  |  |  | 
CC[C@@H](CO)NCCN[C@@H](CC)CO [ETHAMBUTOL] | > 62.5 µg/mL | 1.5 µM | 1.64 µM | 6.25 µM (≈ 1.28 µg/mL) | 3.45 µM | > 200 µM |  |  |  |  |  |  | 
NNC(=O)c1ccncc1 [ISONIAZID] | > 62.5 µg/mL | 0.13 µM | 0.2 µM | 0.31 µM (≈ 0.0425 µg/mL) | 0.19 µM | > 5 µM |  |  |  |  |  |  | 
CCc1nc(N)nc(N)c1-c1ccc(Cl)cc1 [PYRIMETHAMINE] | > 62.5 µg/mL | 24.3 µM | 46.4 µM | 100 µM (≈ 24.9 µg/mL) | 25.1 µM | 28 µM | 100 µM (≈ 24.9 µg/mL) |  |  |  |  |  | 
CO[C@H]1/C=C/O[C@@]2(C)Oc3c(C)c(O)c4c(O)c(c(/C=N/N5CCN(C)CC5)c(O)c4c3C2=O)NC(=O)/C(C)=C\C=C\[C@H](C)[C@H](O)[C@@H](C)[C@@H](O)[C@@H](C)[C@H](OC(C)=O)[C@@H]1C [RIFAMPIN] | > 62.5 µg/mL | 0.02 µM | 0.03 µM | 0.04 µM (≈ 0.0329 µg/mL) | 0.02 µM | 0.02 µM | 0.16 µM (≈ 0.132 µg/mL) |  |  |  |  |  | 
